Like-named read-outs stand apart in the source and are kept apart here.
Assays:
[1] = target: T1, MCL-1 protein (Homo sapiens, UniProt Q07820); test: MCL-1 protein binding experiment (HTRF, MCL-1/Bim); settings: for inhibition at up to 10 µM: HTRF MCL-1/Bim binding, initial concentration 10 μM, read-out: Maximum inhibition rate (%); for Ki: HTRF, 0.1 nM His-MCL-1, 2.5 nM bio-Bim, room temperature
T1 construct: Bim peptide bought from R&D, 3526/1 NA
Procedure: The following method was used to determine the binding ability of the compound of the present invention to MCL-1 protein. The experimental method is briefly described as follows.
MCL-1 inhibitors can bind to MCL-1 protein to prevent the binding of MCL-1 to Bim protein. The experiment evaluates the binding ability of MCL-1 inhibitor to MCL-1 protein by detecting the binding of MCL-1 to Bim protein through HTRF method, and the activity of the compound was evaluated according to the Ki value.
The mixture was incubated at room temperature for 2 hours, followed by the detection of fluorescence signals at 620 nm and 665 nm by PHERAstar. The data was processed by GraphPad software.

[2] = system: MV-4-11 cells; test: Cell proliferation experiment (intracellular ATP, CellTiter-Glo), MV-4-11; format: cell-based; settings: Homo sapiens, MV4-11, 72 h, read-out: MV-4-11 IC50
Procedure: (§1) The following method evaluates the inhibition effect of the compound of the present invention on the proliferation of AMO-1 and MV-4-11 cells according to IC50 value by detecting intracellular ATP content. The experimental method is briefly described as follows.
(§2) AMO-1 cells were cultured in RPMI1640 medium (containing 20% FBS), and MV-4-11 cells were cultured in IMDM medium (containing 10% FBS). The cells were passaged for 2 to 3 times a week, with a passage ratio of 1:4 or 1:6. During the passage, the cells were transferred to a centrifuge tube and centrifuged at 1200 rpm for 3 minutes. The supernatant was discarded, and fresh medium was added to resuspend the cells. […] 100 μL of complete medium was added to the periphery of the 96-well plate. The plate was incubated in an incubator for 24 hours (37° C., 5% CO2).
(§3) The test sample was diluted to 20 mM with DMSO, and then diluted to 9 concentrations by diluting in 4-fold gradient. Blank and control wells were set. 5 μL of the test compound solution formulated as gradient concentration was added to 95 μL of fresh medium. 10 µL of the above drug-containing medium solution was added to the plate. The plate was incubated in an incubator for 3 days (37° C., 5% CO2). In the 96-well cell culture plate, 50 μL of CellTiter-Glo reagent was added to each well, and the plate was left to stand in the dark at room temperature for 5 to 10 minutes. The chemiluminescence signal value was read in PHERAstar, and the data was processed by GraphPad software.

[3] = system: AMO-1 cells; test: Cell proliferation experiment (intracellular ATP, CellTiter-Glo), AMO-1; format: cell-based; settings: Homo sapiens, AMO1, 72 h, read-out: AMO-1 IC50
Procedure: as §1
1. AMO-1, human bone marrow plasmacytoma (Nanjing Cobioer Biosciences Co., Ltd., CBP60242)
as §2, §3

[4] = target: T2, 2C19 (Homo sapiens, UniProt P33261); test: Inhibition of human liver microsomal P450 subenzyme CYP2C19; format: in vitro ADME; settings: human liver microsomes, (S)-mephenytoin metabolic site, 30 minutes incubation
T2 construct: Human liver microsomes (Corning Gentest, Cat No. 452161, Lot No. 6123001, 33 Donors); tissue Corning Gentest 452161; host or cells: human liver microsomes, pool of 33 donors
T2 sequence (P33261 whole entry): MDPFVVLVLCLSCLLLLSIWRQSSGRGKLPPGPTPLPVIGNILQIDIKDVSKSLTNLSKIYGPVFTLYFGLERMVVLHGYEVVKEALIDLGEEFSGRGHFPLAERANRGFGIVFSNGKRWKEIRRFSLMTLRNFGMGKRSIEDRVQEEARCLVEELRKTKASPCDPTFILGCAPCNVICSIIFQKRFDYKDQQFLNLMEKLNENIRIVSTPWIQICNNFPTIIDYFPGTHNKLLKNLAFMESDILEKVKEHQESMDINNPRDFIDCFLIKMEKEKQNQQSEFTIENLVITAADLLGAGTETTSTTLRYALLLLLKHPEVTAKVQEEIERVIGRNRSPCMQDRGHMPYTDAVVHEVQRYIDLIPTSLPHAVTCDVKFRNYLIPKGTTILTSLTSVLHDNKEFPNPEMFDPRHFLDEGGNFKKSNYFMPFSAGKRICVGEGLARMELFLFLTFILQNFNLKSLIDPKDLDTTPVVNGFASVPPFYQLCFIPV
Procedure: (§4) The inhibition effect of the compound of the present invention on the enzymatic activity of human liver microsomal P450 subenzymes CYP2C9 and 2C19 was determined by the following experimental method.
(§5) 6. CYP probe substrate for 2C9 (Diclofenac/4 μM, SIGMA, Cat No. D6899-10G) and CYP probe substrate for 2C19 ((S)-Mephenytoin/20 μM, J&K Scientific Ltd., CatNo. 303768); positive control inhibitor for 2C9 ([…], SIGMA, Cat No. 526-08-9) and positive control inhibitor for 2C19 (Ticlopidine, SIGMA, Cat No. T6654-1G).
(§6) 100 mM PBS buffer solution was formulated. 2.5 mg/mL microsome solution, 15 mM MgCl2 solution and 5 mM NADPH solution were formulated with the buffer solution. 30 mM stock solution was diluted with DMSO into a serial solution I with concentrations of 10 mM, 3 mM, 1 mM, 0.3 mM, 0.1 mM, 0.03 mM, […] and 0 mM. The above serial solution I was diluted for 200 times with the phosphate buffer solution (PBS) to obtain a serial test solution II (150, 50, 15, 5, 1.5, 0.15, 0.015, 0 μM). […]
(§7) The data were calculated by Graphpad Prism to obtain the IC50 values of the compound for the diclofenac metabolic site of CYP2C9 and (S)-mephenytoin metabolic site of 2C19. which are shown in Table 3.

[5] = target: T3, CYP2C9 (Homo sapiens, UniProt P11712); test: Inhibition of human liver microsomal P450 subenzyme CYP2C9; format: in vitro ADME; settings: human liver microsomes, diclofenac metabolic site, 30 minutes incubation; read-out: 2C9 IC50
T3 construct: Human liver microsomes (Corning Gentest, Cat No. 452161, Lot No. 6123001, 33 Donors); tissue Corning Gentest 452161; host or cells: human liver microsomes, pool of 33 donors
T3 sequence (P11712 whole entry): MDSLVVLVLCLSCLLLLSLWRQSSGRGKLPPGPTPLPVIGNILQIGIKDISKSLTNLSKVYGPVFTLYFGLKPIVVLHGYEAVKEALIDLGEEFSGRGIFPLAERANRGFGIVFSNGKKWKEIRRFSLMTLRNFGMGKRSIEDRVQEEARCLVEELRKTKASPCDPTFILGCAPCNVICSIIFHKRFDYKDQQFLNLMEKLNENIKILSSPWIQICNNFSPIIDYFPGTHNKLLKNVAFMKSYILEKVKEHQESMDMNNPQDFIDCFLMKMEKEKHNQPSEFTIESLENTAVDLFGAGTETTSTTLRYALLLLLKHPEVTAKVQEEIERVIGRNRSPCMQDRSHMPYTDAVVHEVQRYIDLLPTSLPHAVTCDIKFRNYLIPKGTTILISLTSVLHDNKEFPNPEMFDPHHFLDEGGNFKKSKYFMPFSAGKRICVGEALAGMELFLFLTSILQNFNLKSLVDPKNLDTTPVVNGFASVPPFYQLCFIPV
Procedure: as §4, §5, §6, §7

[6] = MV-4-11 cells, incubated 3 days, CellTiter-Glo
[7] = AMO-1 cells, incubated 3 days, CellTiter-Glo

T1 sequence (Q07820 171-327): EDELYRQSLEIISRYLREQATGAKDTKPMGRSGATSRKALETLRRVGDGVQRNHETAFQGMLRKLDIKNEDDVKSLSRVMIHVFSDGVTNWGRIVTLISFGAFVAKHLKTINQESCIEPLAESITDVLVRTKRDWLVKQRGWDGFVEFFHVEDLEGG

| Structure (SMILES) | inhibition at up to 10 µM [1] | Ki [1] | IC50 [2, 6] | IC50 [2] | IC50 [4] | IC50 [5] | IC50 [3, 7] | IC50 [3] |
| --- | --- | --- | --- | --- | --- | --- | --- | --- |
| Cc1c(C(=O)O)n2c3ccc(Cl)c(c13)-c1c(nn(C)c1C)CSCc1cc(n(C)n1)CSc1cc3c(c(c1)OCCC2)CCCC3 (single isomer, unassigned) [Example 7-1, (Ra)-17-Chloro-5,13,14,22-tetramethyl-28-oxa-2,9-dithia-5,6,12,13,24-pentaazaheptacyclo[27.7.1.1^4,7.0^11,15.0^16,21.0^20,24.0^30,35]octatriaconta-1(37),4(38),6,11,14,16,18,20,22,29,35-undecaene-23-carboxylic acid] | 99% | 0.74 nM | 71 nM | – | – | – | 70 nM | – |
| Cc1c(C(=O)O)n2c3ccc(Cl)c(c13)-c1c(nn(C)c1C)CSCc1cc(n(C)n1)CCc1cc3c(c(c1)OCCC2)CCCC3 (single isomer, unassigned) [Example 8-1, (Ra)-17-Chloro-5,13,14,22-tetramethyl-28-oxa-9-thia-5,6,12,13,24-pentaazaheptacyclo[27.7.1.1^4,7.0^11,15.0^16,21.0^20,24.0^30,35]octatriaconta-1(37),4(38),6,11,14,16,18,20,22,29,35-undecaene-23-carboxylic acid] | 100% | 0.46 nM | 136 nM | – | – | – | 100 nM | – |
| Cc1c(C(=O)O)n2c3ccc(Cl)c(c13)-c1c(nn(C)c1C)CSCc1cc(n(C)n1)CCc1cc3c(c(c1)OCCC2)CCCC3 [Example 8, 17-Chloro-5,13,14,22-tetramethyl-28-oxa-9-thia-5,6,12,13,24-pentaazaheptacyclo[27.7.1.1^4,7.0^11,15.0^16,21.0^20,24.0^30,35]octatriaconta-1(37),4(38),6,11,14,16,18,20,22,29,35-undecaene-23-carboxylic acid] | 100% | 0.55 nM | – | – | – | – | – | – |
| Cc1c(C(=O)O)n2c3ccc(Cl)c(c13)-c1c(nn(C)c1C)CN(C)Cc1cc(n(C)n1)CSc1cc3c(c(c1)OCCC2)CCCC3 [Example 9, 17-Chloro-5,9,13,14,22-pentamethyl-28-oxa-2-thia-5,6,9,12,13,24-hexaazaheptacyclo[27.7.1.1^4,7.0^11,15.0^16,21.0^20,24.0^30,35]octatriaconta-1(37),4(38),6,11,14,16,18,20,22,29,35-undecaene-23-carboxylic acid] | 100% | 1.5 nM | – | – | – | – | – | – |
| Cc1c(C(=O)O)n2c3ccc(Cl)c(c13)-c1c(nn3c1CCCC3)CSCc1cc(n(C)n1)CSc1cc(c3ccccc3c1)OCCC2 [Example 10, 21-Chloro-5,26-dimethyl-32-oxa-2,9-dithia-5,6,12,13,28-pentaazaoctacyclo[31.7.1.1^4,7.0^11,19.0^13,18.0^20,25.0^24,28.0^34,39]dotetraconta-1(41),4(42),6,11,18,20,22,24,26,33,35,37,39-tridecaene-27-carboxylic acid] | 101% | 7.9 nM | – | – | – | – | – | – |
| Cc1c(C(=O)O)n2c3ccc(Cl)c(c13)-c1c(nn3c1CCCC3)CN(C)Cc1cc(n(C)n1)CSc1cc(c3ccccc3c1)OCCC2 [Example 11, 21-Chloro-5,9,26-trimethyl-32-oxa-2-thia-5,6,9,12,13,28-hexaazaoctacyclo[31.7.1.1^4,7.0^11,19.0^13,18.0^20,25.0^24,28.0^34,39]dotetraconta-1(41),4(42),6,11,18,20,22,24,26,33,35,37,39-tridecaene-27-carboxylic acid] | 100% | 3 nM | – | – | – | – | – | – |

Stronger by Ki [1], values ahead:

| inhibition at up to 10 µM [1] | Ki [1] | IC50 [2, 6] | IC50 [2] | IC50 [4] | IC50 [5] | Structure (SMILES) | IC50 [3, 7] | IC50 [3] |
| --- | --- | --- | --- | --- | --- | --- | --- | --- |
| 100% | 0.11 nM | 42 nM | – | – | – | Cc1c(C(=O)O)n2c3ccc(Cl)c(c13)-c1c(nn(C)c1C)CSCc1cc(n(C)n1)CSc1cc(c3ccccc3c1)OCCC2 (single isomer, unassigned) [Example 2-1, (Ra)-17-Chloro-5,13,14,22-tetramethyl-28-oxa-2,9-dithia-5,6,12,13,24-pentaazaheptacyclo[27.7.1.1^4,7.0^11,15.0^16,21.0^20,24.0^30,35]octatriaconta-1(37),4(38),6,11,14,16,18,20,22,29,31,33,35-tridecaene-23-carboxylic acid] | 76 nM | – |
| 100% | 0.15 nM | – | 39 nM | – | – | Cc1c(C(=O)O)n2c3ccc(Cl)c(c13)-c1c(nn(C)c1C)CSCc1cc(n(C)n1)CCc1cc(c3ccccc3c1)OCCC2 (single isomer, unassigned) [Example 4-1, (Ra)-17-Chloro-5,13,14,22-tetramethyl-28-oxa-9-thia-5,6,12,13,24-pentaazaheptacyclo[27.7.1.1^4,7.0^11,15.0^16,21.0^20,24.0^30,35]octatriaconta-1(37),4(38),6,11,14,16,18,20,22,29,31,33,35-tridecaene-23-carboxylic acid] | – | 37 nM |
| 100% | 0.24 nM | 36 nM | – | > 30 µM | > 30 µM | Cc1c(C(=O)O)n2c3ccc(Cl)c(c13)-c1c(nn(C)c1C)CSCc1cc(n(C)n1)CSc1cc(cc3c1CCC3)OCCC2 (single isomer, unassigned) [Example 12-1, (Ra)-17-Chloro-5,13,14,22-tetramethyl-28-oxa-2,9-dithia-5,6,12,13,24-pentaazaheptacyclo[27.6.1.1^4,7.0^11,15.0^16,21.0^20,24.0^30,35]heptatriaconta-1(36),4(37),6,11,14,16,18,20,22,29,31(35)-undecaene-23-carboxylic acid] | 34 nM | – |
| 100% | 0.22 nM | 63 nM | – | – | – | Cc1c(C(=O)O)n2c3ccc(Cl)c(c13)-c1c(nn(C)c1C)CSCc1cc(n(C)n1)CSc1cc(cc3c1CCC3)OCCC2 [Example 12, 17-Chloro-5,13,14,22-tetramethyl-28-oxa-2,9-dithia-5,6,12,13,24-pentaazaheptacyclo[27.6.1.1^4,7.0^11,15.0^16,21.0^20,24.0^30,35]heptatriaconta-1(36),4(37),6,11,14,16,18,20,22,29,31(35)-undecaene-23-carboxylic acid] | 63 nM | – |

Reference: US20220041623A1, “INDOLE MACROCYCLIC DERIVATIVE, PREPARATION METHOD THEREOF AND APPLICATION THEREOF IN MEDICINE” (JIANGSU HENGRUI MEDICINE CO., LTD., priority 2018, published 2022)
